# Laboratory results reported in patent US20260283924A1, “TOPICAL COMPOSITIONS FOR PROMOTING HAIR GROWTH” (ESTETRA SRL, priority 2023, published 2026).
# Tested on: occipital hair follicles (healthy donor)
# Experiment: Healthy donor hair follicle organ culture (ex vivo model), Example 8
# Type: cell-based, human
# Settings: 300 nM
# Method: In brief, 24 full-length occipital hair follicles (HF) were obtained from one healthy donor. […] Test substance (either vehicle (0.03% EtOH), E2 at concentration of 300 nM or E4 at concentrations of 3 μM or 300 nM) was added to the medium at the end of the 24 h. Total culturing time was 5 days depending on the stage of the HFs in the vehicle group. The experimental design is depicted in FIG. 23.
compound,measurement,setting,value
"C[C@]12CC[C@@H]3c4ccc(O)cc4CC[C@H]3[C@@H]1CC[C@@H]2O [Formulation E2, 17beta-estradiol]",K15 expression in the suprabulbar outer root sheath,,tendentially increased
same,area of the dermal papilla,,no effect
same,density of cells in the dermal cup of anagen HFs,,no effect
same,density of cells in the dermal papilla,,no effect
same,density of cells in the dermal papilla stalk,,no effect
same,hair matrix keratinocyte proliferation,,tendentially increased
same,hair shaft production (reduction vs vehicle),,significantly reduced
same,microscopic hair cycle,,did not affect the hair cycle
same,number of CD34+ cells in the suprabulbar outer root sheath,,no effect
same,number of cells (K15) in the suprabulbar outer root sheath,,tendentially increased
same,total number of cells in the dermal cup of anagen HFs,,no effect
same,total number of cells in the dermal papilla,,no effect
same,total number of cells in the dermal papilla stalk,,no effect
same,K15 expression in the suprabulbar outer root sheath,listed as Estradiol,tendentially increase K15 expression
same,area of the dermal papilla,listed as Estradiol,does not display a significant effect
same,density of cells in the dermal cup of anagen HFs,listed as Estradiol,does not display a significant effect
same,density of cells in the dermal papilla,listed as Estradiol,does not display a significant effect
same,density of cells in the dermal papilla stalk,listed as Estradiol,does not display a significant effect
same,hair matrix keratinocyte proliferation,listed as Estradiol,increased
same,hair shaft production (reduction vs vehicle),listed as Estradiol,Reduction of hair shaft production
same,microscopic hair cycle,listed as Estradiol,does not affect hair cycle
same,number of CD34+ cells in the suprabulbar outer root sheath,listed as Estradiol,does not display any effect
same,number of cells (K15) in the suprabulbar outer root sheath,listed as Estradiol,tendentially increase
same,total number of cells in the dermal cup of anagen HFs,listed as Estradiol,does not display a significant effect
same,total number of cells in the dermal papilla,listed as Estradiol,does not display a significant effect
same,total number of cells in the dermal papilla stalk,listed as Estradiol,does not display a significant effect
